The text below walks through data of publication PMC7180948, “New Insights into 4-Anilinoquinazolines as Inhibitors of Cardiac Troponin I–Interacting Kinase (TNNi3K)” (Molecules, 2020).

By inhibition is commonly meant the percentage by which the read-out fell short of the control.

Common to all, as to experiment: biochemical
Set-up in all cases: KINOMEscan competition binding panel (Eurofins DiscoverX), single concentration, % inhibition
What all share (conditions): read-out: 7 at 1 µM % inhibition

The target of test [1] is HIPK4 (Homo sapiens, UniProt Q8NE63). A digest of the protocol:
(§1)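 Compounds were submitted at 1 µM to a KINOMEscan assay covering more than 400 human kinases. The screen served to define the selectivity profile.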

The target of test [2] is T1, IKK-alpha (Homo sapiens, UniProt O15111).
T1 construct: gene CHUK
Put shortly: as §1

Test [3] has as its target T2, p38-beta (Homo sapiens, UniProt Q15759).
T2 construct: gene MAPK11
Put shortly: as §1

Test [4] deals with ERBB3 (Homo sapiens, UniProt P21860). Put shortly: as §1
In test [5] the target is TIE1 (Homo sapiens, UniProt P35590). Put shortly:
as §1

For test [6], the target named is T3, MEK3 (Homo sapiens, UniProt P46734).
T3 construct: gene MAP2K3
Put shortly:
as §1

Test [7] has as its target BRSK1 (Homo sapiens, UniProt Q8TDC3). A digest of the protocol: as §1
The target in test [8] is T4, DRAK1 (Homo sapiens, UniProt Q9UEE5).
T4 construct: gene STK17A
Put shortly: as §1

Test [9] addresses T5, AMPK-alpha1 (Homo sapiens, UniProt Q13131).
T5 construct: gene PRKAA1
Put shortly: as §1

In test [10] the target is PIK3CA(C420R) (Homo sapiens, UniProt P42336, C420R). A digest of the protocol:
as §1

Test [11] deals with T6, TAK1 (Homo sapiens, UniProt O43318).
T6 construct: gene MAP3K7
Put shortly:
as §1

Test [12] addresses EPHA4 (Homo sapiens, UniProt P54764). Put shortly: as §1
Test [13] has as its target KIT(D816V) (Homo sapiens, UniProt P10721, D816V). A digest of the protocol: as §1
Test [14] deals with MARK4 (Homo sapiens, UniProt Q96L34). A digest of the protocol:
as §1

Test [15] deals with NEK10 (Homo sapiens, UniProt Q6ZWH5). A digest of the protocol:
as §1

Test [16] deals with T7, BRK (Homo sapiens, UniProt Q13882).
T7 construct: gene PTK6
Put shortly:
as §1

Test [17] addresses CAMK1 (Homo sapiens, UniProt Q14012). Put shortly:
as §1

The target in test [18] is PIK3CA(H1047Y) (Homo sapiens, UniProt P42336, H1047Y). Put shortly:
as §1

Test [19] concerns the target CHEK1 (Homo sapiens, UniProt O14757). A digest of the protocol:
as §1

The target of test [20] is BRAF (Homo sapiens, UniProt P15056). Put shortly: as §1
The target in test [21] is MKNK2 (Homo sapiens, UniProt Q9HBH9). A digest of the protocol: as §1
For test [22], the target named is TLK1 (Homo sapiens, UniProt Q9UKI8). A digest of the protocol: as §1
The target of test [23] is ROCK2 (Homo sapiens, UniProt O75116). Put shortly:
as §1

For test [24], the target named is PAK1 (Homo sapiens, UniProt Q13153). Put shortly: as §1
Sequence of PAK1 (Q13153 whole entry): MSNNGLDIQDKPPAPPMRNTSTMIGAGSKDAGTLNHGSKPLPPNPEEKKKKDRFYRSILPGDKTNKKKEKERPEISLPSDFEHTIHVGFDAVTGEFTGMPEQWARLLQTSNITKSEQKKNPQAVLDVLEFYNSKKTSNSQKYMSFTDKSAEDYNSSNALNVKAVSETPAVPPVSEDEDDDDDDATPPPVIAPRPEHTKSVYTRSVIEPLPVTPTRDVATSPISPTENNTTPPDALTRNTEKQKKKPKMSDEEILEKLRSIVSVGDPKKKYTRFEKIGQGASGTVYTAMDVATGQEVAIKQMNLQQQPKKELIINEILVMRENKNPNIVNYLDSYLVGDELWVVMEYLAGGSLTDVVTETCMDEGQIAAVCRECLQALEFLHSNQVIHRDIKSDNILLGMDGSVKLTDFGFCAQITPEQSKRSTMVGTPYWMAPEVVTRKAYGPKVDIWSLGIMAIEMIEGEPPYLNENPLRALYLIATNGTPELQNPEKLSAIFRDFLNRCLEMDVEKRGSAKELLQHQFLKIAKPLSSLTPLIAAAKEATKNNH

T7 sequence (Q13882 whole entry): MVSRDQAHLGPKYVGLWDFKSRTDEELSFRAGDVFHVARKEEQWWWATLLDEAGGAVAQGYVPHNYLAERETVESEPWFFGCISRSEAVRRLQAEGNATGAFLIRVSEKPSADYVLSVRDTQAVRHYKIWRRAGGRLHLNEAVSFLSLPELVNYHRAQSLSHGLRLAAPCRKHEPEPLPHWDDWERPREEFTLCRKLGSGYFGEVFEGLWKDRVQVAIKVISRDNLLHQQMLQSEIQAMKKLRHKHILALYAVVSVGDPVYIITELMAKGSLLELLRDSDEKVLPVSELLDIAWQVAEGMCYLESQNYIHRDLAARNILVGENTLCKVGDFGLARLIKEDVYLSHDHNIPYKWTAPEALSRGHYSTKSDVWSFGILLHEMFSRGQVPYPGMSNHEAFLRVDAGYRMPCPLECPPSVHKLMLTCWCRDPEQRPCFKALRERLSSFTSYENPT
T3 sequence (P46734 whole entry): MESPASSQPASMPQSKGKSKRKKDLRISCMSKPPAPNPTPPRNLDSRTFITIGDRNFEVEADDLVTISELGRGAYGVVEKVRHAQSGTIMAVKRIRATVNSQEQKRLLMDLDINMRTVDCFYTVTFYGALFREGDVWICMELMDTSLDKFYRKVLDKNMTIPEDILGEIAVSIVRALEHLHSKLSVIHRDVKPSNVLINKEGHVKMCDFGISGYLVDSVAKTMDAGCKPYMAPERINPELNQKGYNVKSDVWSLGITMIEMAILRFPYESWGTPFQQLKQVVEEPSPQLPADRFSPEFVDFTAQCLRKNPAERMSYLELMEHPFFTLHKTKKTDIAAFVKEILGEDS
T6 sequence (O43318 whole entry): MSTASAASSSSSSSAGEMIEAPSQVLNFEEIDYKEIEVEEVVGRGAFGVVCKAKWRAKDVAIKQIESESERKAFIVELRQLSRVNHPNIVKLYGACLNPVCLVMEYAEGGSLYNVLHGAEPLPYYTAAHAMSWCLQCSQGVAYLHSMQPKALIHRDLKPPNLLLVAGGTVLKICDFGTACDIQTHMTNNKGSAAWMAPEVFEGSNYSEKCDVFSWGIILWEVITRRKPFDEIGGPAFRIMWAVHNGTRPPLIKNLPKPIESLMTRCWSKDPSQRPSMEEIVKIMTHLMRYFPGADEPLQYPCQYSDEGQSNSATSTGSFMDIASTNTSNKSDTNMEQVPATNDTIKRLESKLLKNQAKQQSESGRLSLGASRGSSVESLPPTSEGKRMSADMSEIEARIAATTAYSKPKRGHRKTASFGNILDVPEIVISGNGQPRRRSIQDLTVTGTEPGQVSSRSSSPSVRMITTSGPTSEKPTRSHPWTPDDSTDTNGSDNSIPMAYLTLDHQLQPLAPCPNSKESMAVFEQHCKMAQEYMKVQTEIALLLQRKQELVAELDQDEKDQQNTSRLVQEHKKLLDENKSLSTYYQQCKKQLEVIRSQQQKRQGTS
Sequence of BRAF (P15056 whole entry): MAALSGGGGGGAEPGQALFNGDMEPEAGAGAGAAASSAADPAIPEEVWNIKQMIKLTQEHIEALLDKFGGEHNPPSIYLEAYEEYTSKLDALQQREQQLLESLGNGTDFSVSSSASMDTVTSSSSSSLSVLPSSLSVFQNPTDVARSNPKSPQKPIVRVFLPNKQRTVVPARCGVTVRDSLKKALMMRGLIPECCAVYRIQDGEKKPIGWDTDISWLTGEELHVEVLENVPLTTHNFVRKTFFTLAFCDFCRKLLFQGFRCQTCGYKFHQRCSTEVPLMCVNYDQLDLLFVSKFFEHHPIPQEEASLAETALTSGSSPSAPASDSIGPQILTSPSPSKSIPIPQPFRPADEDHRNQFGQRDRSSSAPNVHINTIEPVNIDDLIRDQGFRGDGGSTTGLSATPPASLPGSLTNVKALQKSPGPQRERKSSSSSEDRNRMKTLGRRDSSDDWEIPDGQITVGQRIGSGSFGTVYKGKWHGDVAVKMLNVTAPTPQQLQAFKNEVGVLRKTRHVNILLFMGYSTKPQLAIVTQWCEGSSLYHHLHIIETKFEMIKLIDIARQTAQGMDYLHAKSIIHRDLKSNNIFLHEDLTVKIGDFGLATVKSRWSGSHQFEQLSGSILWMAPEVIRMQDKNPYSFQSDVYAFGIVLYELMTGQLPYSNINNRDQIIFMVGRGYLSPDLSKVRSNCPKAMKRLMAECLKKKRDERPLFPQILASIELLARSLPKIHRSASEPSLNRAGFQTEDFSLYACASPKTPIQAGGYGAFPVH
Sequence of TLK1 (Q9UKI8 whole entry): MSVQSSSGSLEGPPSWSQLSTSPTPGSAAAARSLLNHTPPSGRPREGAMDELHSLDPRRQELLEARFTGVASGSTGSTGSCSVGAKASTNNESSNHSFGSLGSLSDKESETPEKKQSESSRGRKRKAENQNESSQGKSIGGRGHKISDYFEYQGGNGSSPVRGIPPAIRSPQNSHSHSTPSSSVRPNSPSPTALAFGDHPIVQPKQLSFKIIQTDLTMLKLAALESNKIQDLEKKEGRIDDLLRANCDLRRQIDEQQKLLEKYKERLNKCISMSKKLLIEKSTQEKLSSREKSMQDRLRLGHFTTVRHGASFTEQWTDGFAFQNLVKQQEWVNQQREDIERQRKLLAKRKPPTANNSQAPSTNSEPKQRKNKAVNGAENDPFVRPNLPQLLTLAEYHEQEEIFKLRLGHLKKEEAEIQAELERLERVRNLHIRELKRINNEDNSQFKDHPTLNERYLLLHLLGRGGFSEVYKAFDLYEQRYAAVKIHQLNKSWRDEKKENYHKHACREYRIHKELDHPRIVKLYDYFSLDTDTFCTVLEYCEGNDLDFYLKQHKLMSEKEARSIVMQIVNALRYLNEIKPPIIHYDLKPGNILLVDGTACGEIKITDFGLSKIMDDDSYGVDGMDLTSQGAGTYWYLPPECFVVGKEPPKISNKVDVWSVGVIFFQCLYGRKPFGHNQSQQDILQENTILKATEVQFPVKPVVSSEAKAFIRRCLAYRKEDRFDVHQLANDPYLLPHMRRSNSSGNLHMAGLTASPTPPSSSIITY
T2 sequence (Q15759 whole entry): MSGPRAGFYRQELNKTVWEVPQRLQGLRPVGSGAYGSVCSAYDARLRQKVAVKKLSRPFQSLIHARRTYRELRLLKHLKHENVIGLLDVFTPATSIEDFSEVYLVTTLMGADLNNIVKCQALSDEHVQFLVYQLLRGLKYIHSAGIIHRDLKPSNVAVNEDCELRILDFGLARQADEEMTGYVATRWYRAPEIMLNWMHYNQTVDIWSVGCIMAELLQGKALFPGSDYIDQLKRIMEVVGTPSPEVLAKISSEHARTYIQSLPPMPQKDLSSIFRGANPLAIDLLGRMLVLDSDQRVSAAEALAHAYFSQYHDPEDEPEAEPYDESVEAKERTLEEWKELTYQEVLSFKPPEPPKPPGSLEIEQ
T4 sequence (Q9UEE5 whole entry): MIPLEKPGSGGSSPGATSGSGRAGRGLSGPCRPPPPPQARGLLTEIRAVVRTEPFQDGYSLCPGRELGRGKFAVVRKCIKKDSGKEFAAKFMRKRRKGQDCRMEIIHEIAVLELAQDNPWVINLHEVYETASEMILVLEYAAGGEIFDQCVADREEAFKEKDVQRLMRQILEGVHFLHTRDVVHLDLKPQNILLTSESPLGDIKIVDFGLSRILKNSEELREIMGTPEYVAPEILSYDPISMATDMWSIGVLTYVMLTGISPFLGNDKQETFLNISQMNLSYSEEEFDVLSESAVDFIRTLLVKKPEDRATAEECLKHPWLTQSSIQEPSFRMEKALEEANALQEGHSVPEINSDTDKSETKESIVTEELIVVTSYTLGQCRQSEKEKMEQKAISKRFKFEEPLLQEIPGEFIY
Sequence of HIPK4 (Q8NE63 whole entry): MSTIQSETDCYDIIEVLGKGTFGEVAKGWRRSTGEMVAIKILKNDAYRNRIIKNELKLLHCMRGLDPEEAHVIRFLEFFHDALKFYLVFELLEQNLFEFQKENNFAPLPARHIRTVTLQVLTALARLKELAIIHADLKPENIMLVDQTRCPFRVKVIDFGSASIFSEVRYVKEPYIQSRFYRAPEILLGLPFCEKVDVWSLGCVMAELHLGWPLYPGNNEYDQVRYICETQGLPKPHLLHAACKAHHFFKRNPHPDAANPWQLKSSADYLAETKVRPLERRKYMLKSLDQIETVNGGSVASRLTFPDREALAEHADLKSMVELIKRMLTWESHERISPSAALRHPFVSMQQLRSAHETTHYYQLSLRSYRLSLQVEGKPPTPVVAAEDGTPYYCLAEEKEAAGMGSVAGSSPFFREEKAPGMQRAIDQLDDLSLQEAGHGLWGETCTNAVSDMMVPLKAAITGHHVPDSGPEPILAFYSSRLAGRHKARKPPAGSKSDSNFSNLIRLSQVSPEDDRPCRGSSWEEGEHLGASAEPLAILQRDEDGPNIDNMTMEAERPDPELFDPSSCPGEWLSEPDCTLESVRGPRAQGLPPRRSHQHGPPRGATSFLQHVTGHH

For `CNS(=O)(=O)c1ccc(N(C)C)c(Nc2ncnc3cc(OC)c(OC)cc23)c1` [compound 7, 3-((6,7-dimethoxyquinazolin-4-yl)amino)-4-(dimethylamino)-N-methylbenzenesulfonamide], the inhibition at 1 µM in [1] stood at 13%; in test [2] it was 68%; in test [3] it was 0%; in test [4] it was 31%; in test [5], 0%; in [6], 4%. Further, the inhibition at 1 µM in test [7] is 0%; in test [8] it was 0%; in [9], 0%; in test [10] it was 5%; in [11] it was 51%; in test [12], 0%. The inhibition at 1 µM in [13] worked out at 91.7%; in test [14], 2%; in [15], 0%; in test [16], 0%; in [17], 0%; in test [18], 17%. Besides, the inhibition at 1 µM in [19] was found to be 0%; in [20], 84%; in [21], 13%; in test [22] it was 0%; in test [23] it was 0%; in test [24] it was 0%.
